Where two headings read alike, the source gives them in different places.
Tests used:
[1] = tested on: HCT116 human colorectal adenocarcinoma
Experimental: MPT0L056 was used to evaluate for activity against the HCT116 human colorectal adenocarcinoma.
However, MPT0E028 was administered orally (p.o.) in 1.0% CMC and 0.5% Tween 80 and given dose at 25 mg/kg daily to end schedule.
Each animal was euthanized when the tumors reached the predetermined endpoint size of 1,000 mm^3. The time to endpoint (TTE) for each mouse was calculated by the following equation:
[formula] where TTE is expressed in days, endpoint volume is in mm^3, b is the intercept, and m is the slope of the line obtained by linear regression of a log-transformed tumor growth data set. The data set is comprised of the first observation that exceeded the study endpoint volume and the three consecutive observations that immediately preceded the attainment of the endpoint volume. The calculated TTE is usually less than the day on which an animal is euthanized for tumor size. […] An animal classified as having died from treatment-related (TR) causes or non-treatment-related metastasis (NTRm) causes was assigned a TTE value equal to the day of death. An animal classified as having died from non-treatment-related (NTR) causes was excluded from TTE calculations.
Treatment efficacy was determined from tumor growth delay (TGD), which is defined as the increase in the median TTE for a treatment group compared to the control group: TGD=T−C, expressed in days, or as a percentage of the median TTE of the control group:
[formula] where: • T=median TTE for a treatment group, • C=median TTE for control Group 1.
Treatment efficacy was also determined from the tumor volumes of animals remaining in the study on the last day, and from the number of regression responses. The MTV(n) is defined as the median tumor volume on D59 in the number of animals remaining, n, whose tumors have not attained the endpoint volume.
Treatment may cause a partial regression (PR) or a complete regression (CR) of the tumor in an animal. […] An animal with a CR at the termination of a study is additionally classified as a tumor-free survivor (TFS).
Animals were weighed daily for the first five days, then twice weekly until the completion of the study. The mice were examined frequently for overt signs of any adverse, drug-related side effects. Acceptable toxicity for the MTD of cancer drugs is defined as a group mean BW loss of 20% or less during the test, and not more than one TR death among ten animals. A death is classified as TR if there is evidence of treatment side effects from clinical signs and/or necropsy or from unknown causes during dosing period or within 10 days of the last dose. A death is classified as NTR if there is no evidence that the death was related to treatment side effects.
The logrank test was used to determine the statistical significance of the difference between the TTE values of two groups, except any NTR deaths. Statistical and graphical analyses were performed with Prism 3.03 (GraphPad) for Windows. The two-tailed statistical analyses were conducted at P=0.05. Kaplan-Meier plots show the percentage of animals remaining in the study versus time. The Kaplan-Meier plots use the same data set as the log rank test. The tumor growth curves show the group median tumor volume, on a log scale as a function of time.

HCT-116 = experiment: Growth inhibition assay; format: cell-based; conditions: Homo sapiens, HCT-116; read-out: HCT-116 GI50 (μM) Mean ± S.E.
Experimental: (§1) Cells were seeded in 96-well plastic plates and exposed to MPT0L056 for 48 hours. Cell viability was assessed using the 3-(4,5-dimethylthiazol-2-yl)-2,5-diphenyltetrazolium bromide assay. Growth inhibition was expressed as the percentage of surviving cells in drug-treated versus DMSO-treated control cells.
(§2) The compounds of the invention were subjected to growth inhibition assay.

HL-60 = experiment: Growth inhibition assay; format: cell-based; conditions: HL-60; for IC50: Homo sapiens, read-out: HL-60 IC50 (μM) Mean ± S.E.
Experimental: as §1, §2

MDA-MB-231 = experiment: Growth inhibition assay; format: cell-based; conditions: Homo sapiens, MDA-MB-231; read-out: MDA-MB-231 GI50 (μM) Mean ± S.E.
Experimental: as §1, §2

Hep 3B = experiment: Growth inhibition assay; format: cell-based; conditions: Homo sapiens, Hep3B; read-out: Hep3B GI50 (μM) Mean ± S.E.
Experimental: as §1, §2

[2] = Group 1 vs 2: MPT0E028 25 mg/kg
[3] = Group 2: MPT0E028 25 mg/kg po qd to endpoint

Row | SMILES | GI50 (HCT-116) | IC50 (HL-60) | GI50 (MDA-MB-231) | GI50 (Hep 3B) | further results
1 | O=C(/C=C/c1ccc2c(c1)CCN2S(=O)(=O)c1ccccc1)NO [MPT0E028, reference compound] | – | – | – | – | Hazard Ratio [1, 2]: 3.677; Median survival [1, 2]: 40.5; Median survival Ratio [1, 2]: 0.5605; Hazard Ratio ([1]; Group 1 vs 7: 100/25 mg/kg): 1.43; Median survival ([1]; Group 1 vs 7: 100/25 mg/kg): 33.95; Median survival Ratio ([1]; Group 1 vs 7: 100/25 mg/kg): 0.6686; Hazard Ratio ([1]; Group 1 vs 8: 50/25 mg/kg): 3.433; Median survival ([1]; Group 1 vs 8: 50/25 mg/kg): 45.3; Median survival Ratio ([1]; Group 1 vs 8: 50/25 mg/kg): 0.5011; MTV (n) Day 59 [1, 3]: 454 mm^3; Median TTE [1, 3]: 40.5 days; T-C [1, 3]: 17.8 days; antitumor activity (logrank analysis) [1, 3]: produced significant antitumor activity; % TGD ([1]; Group 2: MPT0E028 25 mg/kg po qd to endpoint, 25 mg/kg): 78%; Logrank Significance ([1]; Group 2: MPT0E028 25 mg/kg po qd to endpoint, compared to Group 1): * (* = P < 0.05); Day of Max % BW Loss ([1]; mouse, in vivo, po, 25 mg/kg): 5 days; Max % BW Loss ([1]; mouse, in vivo, po, 25 mg/kg): −7.7%; No. of NTR ([1]; mouse, in vivo, po, 25 mg/kg): 0; No. of TR ([1]; mouse, in vivo, po, 25 mg/kg): 0
2 | O=C(Nc1ccc(F)cc1)c1ccc(CNC2=C(Cl)C(=O)c3ccccc3C2=O)cc1 [MPT0L082] | 10 to 30 µM | 10 to 30 µM | 10 to 30 µM | 10 to 30 µM | –
3 | O=C(Nc1ccc2[nH]cnc2c1)c1ccc(CNC2=C(Cl)C(=O)c3ccccc3C2=O)cc1 [MPT0L093, N-(1H-benzo[d]imidazol-5-yl)-4-((3-chloro-1,4-dioxo-1,4-dihydronaphthalen-2-ylamino)methyl)benzamide] | 10 to 30 µM | 10 to 30 µM | 10 to 30 µM | 10 to 30 µM | –
4 | Nc1ccn(C(=O)c2ccc(CNC3=C(Cl)C(=O)c4ccccc4C3=O)cc2)n1 [MPT0L094, 2-(4-(3-amino-1H-pyrazole-1-carbonyl)benzylamino)-3-chloronaphthalene-1,4-dione] | 10 to 30 µM | – | 10 to 30 µM | 10 to 30 µM | HL-60 IC50 (μM) Mean ± S.E. (HL-60): 110~30 μM
5 | O=C(Nc1ccc2[nH]ncc2c1)c1ccc(CNC2=C(Cl)C(=O)c3ccccc3C2=O)cc1 [MPT0L097, 4-((3-chloro-1,4-dioxo-1,4-dihydronaphthalen-2-ylamino)methyl)-N-(1H-indazol-5-yl)benzamide] | 10 to 30 µM | 10 to 30 µM | 10 to 30 µM | 10 to 30 µM | –
6 | Cc1cnc(NC(=O)c2ccc(CNC3=C(Cl)C(=O)c4ccccc4C3=O)cc2)s1 [MPT0L098, 4-((3-chloro-1,4-dioxo-1,4-dihydronaphthalen-2-ylamino)methyl)-N-(5-methylthiazol-2-yl)benzamide] | 10 to 30 µM | 7.06 ± 0.73 µM | 10 to 30 µM | 10 to 30 µM | –
7 | Cc1cc(N)nn1C(=O)c1ccc(CNC2=C(Cl)C(=O)c3ccccc3C2=O)cc1 [MPT0L100, 2-(4-(3-amino-5-methyl-1H-pyrazole-1-carbonyl)benzylamino)-3-chloronaphthalene-1,4-dione] | 10 to 30 µM | 10 to 30 µM | 10 to 30 µM | 10 to 30 µM | –
8 | O=C(Nc1ccncc1[N+](=O)[O-])c1ccc(CNC2=C(Cl)C(=O)c3ccccc3C2=O)cc1 [MPT0L103, 4-((3-chloro-1,4-dioxo-1,4-dihydronaphthalen-2-ylamino)methyl)-N-(3-nitropyridin-4-yl)benzamide] | 6.12 ± 1.17 µM | 5.42 ± 0.7 µM | 10 to 30 µM | 10 to 30 µM | –
9 | Cc1cc(NC(=O)c2ccc(CNC3=C(Cl)C(=O)c4ccccc4C3=O)cc2)c2ccccc2n1 [MPT0L112, 4-((3-chloro-1,4-dioxo-1,4-dihydronaphthalen-2-ylamino)methyl)-N-(2-methylquinolin-4-yl)benzamide] | 10 to 30 µM | 2.68 ± 0.03 µM | 8.12 ± 1.32 µM | 10 to 30 µM | –

Second part, led by results:

Row | GI50 (HCT-116) | IC50 (HL-60) | GI50 (MDA-MB-231) | SMILES | GI50 (Hep 3B) | further results
10 | 10 to 30 µM | 10 to 30 µM | 10 to 30 µM | O=C(Nc1ccccn1)c1ccc(CNC2=C(Cl)C(=O)c3ccccc3C2=O)cc1 [MPT0L018, 4-(((3-chloro-1,4-dioxo-1,4-dihydronaphthalen-2-yl)amino)methyl)-N-(pyridin-2-yl)benzamide] | 10 to 30 µM | –
11 | 10 to 30 µM | 10 to 30 µM | 10 to 30 µM | O=C(Nc1cccnc1)c1ccc(CNC2=C(Cl)C(=O)c3ccccc3C2=O)cc1 [MPT0L055, 4-(((3-chloro-1,4-dioxo-1,4-dihydronaphthalen-2-yl)amino)methyl)-N-(pyridin-3-yl)benzamide] | 10 to 30 µM | –
12 | 5.52 ± 0.66 µM | 7.27 ± 2.98 µM | 9.19 ± 0.4 µM | O=C(Nc1cnccn1)c1ccc(CNC2=C(Cl)C(=O)c3ccccc3C2=O)cc1 [MPT0L076, 4-(((3-chloro-1,4-dioxo-1,4-dihydronaphthalen-2-yl)amino)methyl)-N-(pyrazin-2-yl)benzamide] | 8.77 ± 0.9 µM | –
13 | 10 to 30 µM | 10 to 30 µM | 10 to 30 µM | O=C(Nc1ccccc1)c1ccc(CNC2=C(Cl)C(=O)c3ccccc3C2=O)cc1 [MPT0L083, 4-(((3-chloro-1,4-dioxo-1,4-dihydronaphthalen-2-yl)amino)methyl)-N-phenylbenzamide] | 10 to 30 µM | –
14 | 10 to 30 µM | 8.53 ± 0.55 µM | 10 to 30 µM | O=C(Nc1nccs1)c1ccc(CNC2=C(Cl)C(=O)c3ccccc3C2=O)cc1 [MPT0L085, 4-(((3-chloro-1,4-dioxo-1,4-dihydronaphthalen-2-yl)amino)methyl)-N-(thiazol-2-yl)benzamide] | 10 to 30 µM | –
15 | 10 to 30 µM | 10 to 30 µM | 8.88 ± 1.04 µM | O=C(Nc1nc2ccccc2[nH]1)c1ccc(CNC2=C(Cl)C(=O)c3ccccc3C2=O)cc1 [MPT0L086, N-(1H-benzo[d]imidazol-2-yl)-4-(((3-chloro-1,4-dioxo-1,4-dihydronaphthalen-2-yl)amino)methyl)benzamide] | 10 to 30 µM | –
16 | 10 to 30 µM | 10 to 30 µM | 10 to 30 µM | Cc1cc(NC(=O)c2ccc(CNC3=C(Cl)C(=O)c4ccccc4C3=O)cc2)n[nH]1 [MPT0L099, 4-((3-chloro-1,4-dioxo-1,4-dihydronaphthalen-2-ylamino)methyl)-N-(5-methyl-3H-pyrazol-3-yl)benzamide] | 10 to 30 µM | –
17 | 6.82 ± 0.35 µM | 8.09 ± 0.57 µM | 10 to 30 µM | O=C(Nc1ccc2ncccc2c1)c1ccc(CNC2=C(Cl)C(=O)c3ccccc3C2=O)cc1 [MPT0L108, 4-((3-chloro-1,4-dioxo-1,4-dihydronaphthalen-2-ylamino)methyl)-N-(quinolin-6-yl)benzamide] | 10 to 30 µM | –
18 | 10 to 30 µM | 6.43 ± 2.44 µM | 10 to 30 µM | O=C(Nc1cccc2cccnc12)c1ccc(CNC2=C(Cl)C(=O)c3ccccc3C2=O)cc1 [MPT0L109, 4-((3-chloro-1,4-dioxo-1,4-dihydronaphthalen-2-ylamino)methyl)-N-(quinolin-8-yl)benzamide] | 10 to 30 µM | –
19 | 10 to 30 µM | 7.93 ± 1.14 µM | 10 to 30 µM | O=C(Nc1cnc2ccccc2c1)c1ccc(CNC2=C(Cl)C(=O)c3ccccc3C2=O)cc1 [MPT0L110, 4-((3-chloro-1,4-dioxo-1,4-dihydronaphthalen-2-ylamino)methyl)-N-(quinolin-3-yl)benzamide] | 10 to 30 µM | –
20 | 10 to 30 µM | 2.23 ± 0.27 µM | 10 to 30 µM | O=C(Nc1cccc2ncccc12)c1ccc(CNC2=C(Cl)C(=O)c3ccccc3C2=O)cc1 [MPT0L111, 4-((3-chloro-1,4-dioxo-1,4-dihydronaphthalen-2-ylamino)methyl)-N-(quinolin-5-yl)benzamide] | 10 to 30 µM | –

Source: patent publication US11919858B2, “Aminonapthoquinone compounds and pharmaceutical composition for blocking ubiquitination-proteasome system in diseases” (Calgent Biotechnology Co., Ltd., priority 2015, dated 2024)
